Experimental data as given in ChEMBL document CHEMBL5214882, “Targeting Atg4B for cancer therapy: Chemical mediators” (Eur J Med Chem, 2021).

Tests used:
Cysteine protease ATG4B = target: T1, Cysteine protease ATG4B (Homo sapiens, UniProt Q9Y4P1); assay: Inhibition of ATG4B (unknown origin) using proLC3B as substrate by FRET-LC3 assay
T1 sequence (Q9Y4P1 whole entry): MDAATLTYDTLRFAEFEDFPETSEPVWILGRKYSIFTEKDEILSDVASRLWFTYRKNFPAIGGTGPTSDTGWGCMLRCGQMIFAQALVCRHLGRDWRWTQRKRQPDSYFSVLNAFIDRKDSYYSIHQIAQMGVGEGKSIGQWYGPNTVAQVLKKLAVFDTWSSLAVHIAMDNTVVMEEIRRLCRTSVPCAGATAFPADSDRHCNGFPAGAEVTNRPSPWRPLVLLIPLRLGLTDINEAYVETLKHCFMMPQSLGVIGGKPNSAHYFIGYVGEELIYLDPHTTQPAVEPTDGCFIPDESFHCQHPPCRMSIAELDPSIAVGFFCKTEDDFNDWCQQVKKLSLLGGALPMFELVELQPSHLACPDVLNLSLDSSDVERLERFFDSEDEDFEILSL

HCT-116 = assay: Antitumor activity against human HCT-116 cells […] in mouse assessed as tumor growth inhibition at 50 mg/kg,sc administered for 5 weeks by 3 times a week; format: functional; conditions: HCT-116, 840 h

SMILES	IC50 (Cysteine protease ATG4B) [µM]	inhibition in vivo at 50 mg/kg (HCT-116) [%]
O=C(N[C@@H](Cc1ccccc1)C(=O)CCl)OCc1ccccc1	3.3	–
COc1ccc(Nc2cc(C)nc(Nc3ccc(-c4cc5ccccc5o4)cc3)n2)cc1	–	75
Cc1cc(O)c2c(=O)c3c(O)cc(O)c4c5c(O)cc(O)c6c(=O)c7c(O)cc(C)c8c1c2c(c34)c(c78)c65 [HYPERICIN]	8.9	–
